According to patent publication US11872216B2, “Pharmaceutical formulation comprising cineole and amoxicillin” (priority 2016, dated 2024):
Values belong to the compound of their own block, whether it stands above or below them.

Experiments:
Format in all cases: cell-based
[1] = test system: BSBL Escherichia coli P956; experiment: Microplate microdilution growth inhibition (PIC, MIC, FIC-index)
Protocol: (§1) The six strains tested in this study are purified clinical isolates identified in the bacteriology laboratory of the Hassan II university teaching hospital center (CHU, Fes, Morocco). Three of the six bacterial strains tested are strains of BSBL Escherichia coli (P956, P933 and P7847) and the other three bacterial strains tested are strains of BSBL Klebsiella pneumoniae (H1878, H2001 and H1893).
(§2) For each test performed, precultures of the bacterial strains (frozen beforehand at −20° C.) for 24 h at 37° C. were prepared. From these precultures, bacterial inocula containing 2×10^7 CFU (colony-forming units)/ml were prepared, adjusting the optical density to 540 nm.
(§3) Amoxicillin (AMX) and cineole were supplied by Sigma Aldrich (France). A stock solution of AMX (400 μg/ml) was prepared after dissolving 40 mg of antibiotic in 100 ml of sterile distilled water. From this stock solution, serial dilutions were performed. The cineole concentrations used were prepared by emulsifying pure cineole in 0.2% (v/v) of agar-agar according to the method described by Remmal A et al. (J. Essent. Oil. Res [Book], 1993, 5: pages 1179-1184).
(§4) The partial inhibitory concentrations (PIC) are the concentrations of antibacterial agents which inhibit the growth of a given percentage (90%, 75%, 50%, 40% . . . ) of the bacterial population studied. The PICs of AMX and cineole with respect to the six bacterial strains used were determined via a microplate microdilution technique based on the monitoring of the bacterial growth by measuring the optical density (Casey J. T. et al., J. Microbiol. Meth [Book], 2004, 58: pages 327-334; Patton T et al., J. Microbiol. Meth [Book], 2006, 64: pages 84-95).
(§5) 96-well U-shaped sterile microplates with a capacity of 200 μl were used. For each microplate, two control rows were prepared: • A row containing 200 μl of the MH liquid medium (sterility control and negative control). • A row containing 150 μl of the MH liquid medium and 50 μl of the bacterial inoculum at 2×10^7 CFU/ml (positive control).
(§6) For AMX and cineole, two rows were prepared containing 100 μl of MH liquid medium, 50 μl of the bacteria inoculum at 2×10^7 CFU/ml and 50 μl of decreasing concentrations of antimicrobial agents. The AMX concentrations used are: 50-25-12.5-6.25-3.1-1.6-0.8-0.4-0.20-0.10-0.05-0.025 μg/ml. The cineole concentrations used are: 100-50-25-12.5-6.25-3.1-1.6-0.8-0.4-0.20-0.10-0.05 μl/ml. The optical densities (OD) were determined at 540 nm using a microplate spectrophotometer (Versamax, Molecular Devices, USA). The OD was measured at time t=0 and after 22 hours of incubation at 30° C. The percentage of inhibition of the antimicrobial agents with respect to each of the six strains was calculated according to Casey J. T. et al. (J. Microbiol. Meth. [Book], 2004, 58: pages 327-334) according to the following formula:
(§7) With ODT0=OD of the test well at time t=0, ODT22=OD of the test well after 22 h of incubation, ODC0=OD of the positive control well at time t=0, ODC22=OD of the positive control well after 22 h of incubation.
(§8) After having determined the PICs of AMX and cineole alone, the antibacterial power of the combination of AMX and cineole was evaluated. The same technique of microplate microdilution was used. The AMX-cineole combinations were prepared in sterile tubes as follows: • AMX 50% PIC+cineole 40% PIC • AMX 50% PIC+cineole 30% PIC • AMX 50% PIC+cineole 20% PIC • AMX 25% PIC+cineole 40% PIC • AMX 25% PIC+cineole 30% PIC • AMX 25% PIC+cineole 20% PIC.
(§9) The fractional inhibitory concentration index (FIC-index) expressing the degree of synergism of the AMX-cineole combination was calculated according to the following formula (Odds F. C. et al., J. Antimicrob. Chemoth. [Book], 2003, 52: page 1).
(§10) The AMX-cineole combination is considered: • Synergistic when the FIC-index is ≤0.5 • Additive when 0.5<FIC-index <1 • Indifferent when 1<FIC-index <2 • Antagonistic when FIC-index >2. Results

[2] = test system: BSBL Escherichia coli P933; experiment: as above
Protocol: as §1, §2, §3, §4, §5, §6, §7, §8, §9, §10

[3] = test system: BSBL Klebsiella pneumoniae H1878; experiment: as above
Protocol: as §1, §2, §3, §4, §5, §6, §7, §8, §9, §10

[4] = test system: BSBL Escherichia coli P7847; experiment: as above
Protocol: as §1, §2, §3, §4, §5, §6, §7, §8, §9, §10

[5] = test system: BSBL Klebsiella pneumoniae H1893; experiment: as above
Protocol: as §1, §2, §3, §4, §5, §6, §7, §8, §9, §10

[6] = test system: BSBL Klebsiella pneumoniae H2001; experiment: as above
Protocol: as §1, §2, §3, §4, §5, §6, §7, §8, §9, §10

[7] = test system: three strains of BSBL Escherichia coli and three strains of BSBL Klebsiella pneumoniae; experiment: Microplate microdilution, statements over all six strains tested
Protocol: as §1, §2, §3, §4
96-well U-shaped sterile microplates with a capacity of 200 μl were used. […]
as §6, with “The AMX concentrations used are: 50-25-12.5-6.25-3.1-1.6-0.8-0.4-0.20-0.10-0.05-0.025 μg/ml. The cineole concentrations used are: 100-50-25-12.5-6.25-3.1-1.6-0.8-0.4-0.20-0.10-0.05 μl/ml.” left out, “formula: […]” for “formula:”
After having determined the PICs of AMX and cineole alone, the antibacterial power of the combination of AMX and cineole was evaluated. […]
The fractional inhibitory concentration index (FIC-index) expressing the degree of synergism of the AMX-cineole combination was calculated according to the following formula (Odds F. C. et al., J. Antimicrob. Chemoth. [Book], 2003, 52: page 1). […]

[8] = cineole alone, Escherichia coli P956
[9] = cineole alone, Escherichia coli P933
[10] = cineole alone, Klebsiella pneumoniae H1878
[11] = cineole alone, Escherichia coli P7847
[12] = cineole alone, Klebsiella pneumoniae H1893
[13] = cineole alone, Klebsiella pneumoniae H2001

100% MIC Alone (cineole, second figure of the cell) ([1]; E. coli P956): 100 μl/ml | 100% MIC Alone (cineole, second figure of the cell) ([2]; E. coli P933): 100 μl/ml | 100% MIC Alone (cineole, second figure of the cell) ([3]; K. pneumoniae 111878): 100 μl/ml | 100% MIC Alone (cineole, second figure of the cell) ([4]; E. coli P7847): 100 μl/ml | 100% MIC Alone (cineole, second figure of the cell) ([5]; K. pneumoniae 111893): 100 μl/ml | 100% MIC Alone (cineole, second figure of the cell) ([6]; K. pneumoniae 112001): 100 μl/ml | MICs of cineole ([7]; three strains of E. coli and three strains of K. pneumoniae): ~100 μl/ml
SMILES: CC12CCC(CC1)C(C)(C)O2 [cineole, 1,8-cineole]
20% PIC [1, 8]: 1.2 ± 0.16 μl/ml | 30% PIC [1, 8]: 2.6 ± 0.12 μl/ml | 40% PIC [1, 8]: 6.2 ± 0.20 μl/ml | 20% PIC [2, 9]: 1.3 ± 0.24 μl/ml | 30% PIC [2, 9]: 2.3 ± 0.09 μl/ml | 40% PIC [2, 9]: 6.8 ± 0.14 μl/ml | 20% PIC [3, 10]: 0.4 ± 0.12 μl/ml | 30% PIC [3, 10]: 2.9 ± 0.12 μl/ml | 40% PIC [3, 10]: 7.1 ± 0.12 μl/ml | 20% PIC [4, 11]: 1.2 ± 0.11 μl/ml | 30% PIC [4, 11]: 2.7 ± 0.12 μl/ml | 40% PIC [4, 11]: 6.5 ± 0.10 μl/ml | 20% PIC [5, 12]: 0.6 ± 0.12 μl/ml | 30% PIC [5, 12]: 2.7 ± 0.09 μl/ml | 40% PIC [5, 12]: 6.8 ± 0.09 μl/ml | 20% PIC [6, 13]: 0.7 ± 0.09 μl/ml | 30% PIC [6, 13]: 3.1 ± 0.10 μl/ml | 40% PIC [6, 13]: 6.9 ± 0.12 μl/ml | 40% PIC of cineole ([7]; span over all strains tested): 6.2-7.1 μl/ml

MIC ([1]; Escherichia coli, E. coli P956, read-out: 100% MIC Alone (amoxicillin, first figure of the cell)): 50 µg/mL | MIC ([2]; Escherichia coli, E. coli P933, read-out: 100% MIC Alone (amoxicillin, first figure of the cell)): 50 µg/mL | MIC ([3]; Klebsiella pneumoniae, K. pneumoniae 111878, read-out: 100% MIC Alone (amoxicillin, first figure of the cell)): 50 µg/mL | IC50 ([3]; amoxicillin alone, Klebsiella pneumoniae H1878, read-out: 50% PIC): 1.6 ± 0.17 µg/mL | MIC ([4]; Escherichia coli, E. coli P7847, read-out: 100% MIC Alone (amoxicillin, first figure of the cell)): 50 µg/mL | MIC ([5]; Klebsiella pneumoniae, K. pneumoniae 111893, read-out: 100% MIC Alone (amoxicillin, first figure of the cell)): 50 µg/mL | IC50 ([5]; amoxicillin alone, Klebsiella pneumoniae H1893, read-out: 50% PIC): 1.7 ± 0.09 µg/mL | MIC ([6]; Klebsiella pneumoniae, K. pneumoniae 112001, read-out: 100% MIC Alone (amoxicillin, first figure of the cell)): 50 µg/mL | IC50 ([6]; amoxicillin alone, Klebsiella pneumoniae H2001, read-out: 50% PIC): 1.3 ± 0.12 µg/mL | IC50 ([7]; span over all strains tested, read-out: 50% PIC of AMX): 1.1 to 1.7 µg/mL | MIC ([7]; three strains of E. coli and three strains of K. pneumoniae, read-out: minimum inhibitory concentrations (MIC, 100% inhibition) of AMX): ~50 µg/mL
SMILES: CC1(C)S[C@@H]2[C@H](NC(=O)[C@H](N)c3ccc(O)cc3)C(=O)N2[C@H]1C(=O)O [amoxicillin, Amoxicillin]
25% PIC ([1]; amoxicillin alone, Escherichia coli P956): 0.7 ± 0.14 µg/mL | IC50 ([1]; amoxicillin alone, Escherichia coli P956, read-out: 50% PIC): 1.1 ± 0.25 µg/mL | 25% PIC ([2]; amoxicillin alone, Escherichia coli P933): 0.5 ± 0.10 µg/mL | IC50 ([2]; amoxicillin alone, Escherichia coli P933, read-out: 50% PIC): 1.3 ± 0.24 µg/mL | 25% PIC ([3]; amoxicillin alone, Klebsiella pneumoniae H1878): 0.9 ± 0.09 µg/mL | 25% PIC ([4]; amoxicillin alone, Escherichia coli P7847): 0.8 ± 0.17 µg/mL | IC50 ([4]; amoxicillin alone, Escherichia coli P7847, read-out: 50% PIC): 1.5 ± 0.13 µg/mL | 25% PIC ([5]; amoxicillin alone, Klebsiella pneumoniae H1893): 0.8 ± 0.12 µg/mL | 25% PIC ([6]; amoxicillin alone, Klebsiella pneumoniae H2001): 0.6 ± 0.14 µg/mL
